Measured values from patent publication US20250332173A1, “COMPOUNDS AND METHODS FOR MODULATING NUCLEIC ACID SPLICING” (REMIX THERAPEUTICS INC., priority 2021, published 2025).
Like-named read-outs stand apart in the source and are kept apart here.

Columns and labels:
Assay type in all cases: cell-based, human
MYB mRNA = assay: RT-qPCR splicing assay, MYB canonical junction (CJ) and alternative junction (AJ) mRNA; settings: Homo sapiens; for AC50: increase in MYB alternative junction (AJ) mRNA, read-out: MYB AJ AC50
Procedure, shortened: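 24 h treatment, 37 °C/5% CO2; A673 or K562; 11-pt 3-fold series, top 10 uM final; DMSO ≤0.25%. Cell lysis with DNase I, then 1-step RT-qPCR. Housekeeping normalization: PPIA (A673), GAPDH or GUSB (K562).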

SMN2 mRNA = assay: RT-qPCR splicing assay, SMN2 canonical junction (CJ) mRNA; settings: Homo sapiens
Procedure, shortened: (§1)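 Exposure: 24 h, 37 °C, 11-point 3-fold dilutions from 10 uM final, DMSO at or below 0.25%, in A673 or K562 cells. Detection: cell-lysate RT-qPCR of canonical junction mRNA relative to GAPDH, GUSB or PPIA.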

Target C [1] = assay: RT-qPCR splicing assay panel, Target C canonical junction (CJ) mRNA; settings: Homo sapiens
Procedure, shortened: as §1

Target C [2] = assay: HiBiT protein abundance assay, Target C (Promega Nano-Glo HiBiT Lytic Detection System, knock-in K562 cell line); settings: Homo sapiens, K562, 24 h, HiBiT K562 cell line, 24 hours, top dose 10 μM; read-out: Effect on protein abundance, Target C (IC50 category)
Procedure, shortened: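 Knock-in K562 cells carrying HiBiT-tagged Target C, 10,000 per well, treated 24 h at 37 °C with 10-point threefold dilutions (top 10 μM final, ≤0.25% DMSO). Lytic HiBiT luminescence read; response normalised to unmodified K562 and DMSO controls, four-parameter fit interpolated at 50% for IC50.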

[3] = canonical junction qPCR panel, Table 5, read-out: MYB (decrease in CJ mRNA levels, IC50)
[4] = decrease in MYB canonical junction (CJ) mRNA, RT-qPCR, read-out: MYB CJ IC50
[5] = canonical junction qPCR panel, Table 5, read-out: SMN2 (decrease in CJ mRNA levels, IC50)
[6] = canonical junction qPCR panel, Table 5, read-out: Target C (decrease in CJ mRNA levels, IC50)
[7] = Table 5 panel, canonical junction qPCR, compound concentration having 50% response in CJ decrease, read-out: MYB IC50 (decrease in CJ mRNA levels)
[8] = Table 5 panel, canonical junction qPCR, compound concentration having 50% response in CJ decrease, read-out: SMN2 IC50 (decrease in CJ mRNA levels)
[9] = Table 5 panel, canonical junction qPCR, compound concentration having 50% response in CJ decrease, read-out: Target C IC50 (decrease in CJ mRNA levels)

| SMILES | IC50 (MYB mRNA; [3]) [µM] | IC50 (MYB mRNA; [4]) [µM] | AC50 (MYB mRNA; RT-qPCR) [µM] | IC50 (SMN2 mRNA; [5]) [µM] | IC50 (Target C [1]; [6]) [µM] | IC50 (Target C [2]) [µM] | IC50 (MYB mRNA; [7]) [µM] | IC50 (SMN2 mRNA; [8]) [µM] | IC50 (Target C [1]; [9]) [µM] |
| --- | --- | --- | --- | --- | --- | --- | --- | --- | --- |
| CCN1CCC(n2ncc3nc(-c4cc(C)c5nc(C)cn5n4)ccc3c2=O)CC1 [Compound 1308] | 0.1 to 1 | 0.1 to 1 | 0.1 to 1 | < 0.1 | 0.1 to 1 | – | – | – | – |
| Cc1c(O)c(-c2ncc3c(=O)n([C@@H]4C[C@@H](C)N[C@@H](C)C4)ccc3n2)cc2cn(C)nc12 [Compound 1453, 6-[(2S,6R)-2,6-dimethyl-4-piperidyl]-2-(6-hydroxy-2,7-dimethyl-indazol-5-yl)pyrido[4,3-d]pyrimidin-5-one] | 0.1 to 1 | 1 to 10 | 0.1 to 1 | < 0.1 | > 10 | > 10 | – | – | – |
| Cc1cn2cc(-c3ccc4c(=O)n(C5CCNCC5)ccc4n3)cc(C#N)c2n1 [Compound 1297] | 0.1 to 1 | 0.1 to 1 | 0.1 to 1 | < 0.1 | 0.1 to 1 | 0.1 to 1 | – | – | – |
| Cc1cn2cc(-c3ncc4c(=O)n([C@H]5CCNC5)ccc4n3)cc(F)c2n1 [Compound 1220] | – | 0.1 to 1 | 0.1 to 1 | – | – | – | 0.1 to 1 | < 0.1 | 0.1 to 1 |
| Cc1cn2cc(-c3cc4ccn(C5CCNCC5)c(=O)c4cn3)cc(F)c2n1 [Compound 1196] | – | < 0.1 | < 0.1 | – | – | 0.1 to 1 | < 0.1 | < 0.1 | 0.1 to 1 |
| Cn1cc2cc(-c3cc4ccn(C5CCNCC5)c(=O)c4cn3)c(O)c(F)c2n1 [Compound 1199] | – | 0.1 to 1 | 1 to 10 | – | – | 1 to 10 | 1 to 10 | < 0.1 | 1 to 10 |
| Cc1c(O)c(-c2ncc3c(=O)n(C4CCNC4)ccc3n2)cc2cn(C)nc12 (stereo in doubt) [Compound 1439, (6R)-2-(6-hydroxy-2,7-dimethyl-indazol-5-yl)-6-pyrrolidin-3-yl-pyrido[4,3-d]pyrimidin-5-one] | 0.1 to 1 | 0.1 to 1 | 0.1 to 1 | < 0.1 | > 10 | > 10 | – | – | – |
| Cc1cn2cc(-c3cc4ccn(C5CCNCC5)c(=O)c4cn3)nc(C)c2n1 [Compound 1205, 6-(2,8-dimethylimidazo[1,2-a]pyrazin-6-yl)-2-(piperidin-4-yl)-2,7-naphthyridin-1(2H)-one] | – | 0.1 to 1 | 0.1 to 1 | – | – | 0.1 to 1 | 0.1 to 1 | < 0.1 | 0.1 to 1 |
| Cc1cc(-c2cc3ccn(C4CCN(CCO)CC4)c(=O)c3cn2)cc2cn(C)nc12 [Compound 1210, 6-(2.7-dimethyl-2H-indazol-5-yl)-2-(1-(2-hydroxyethyl)piperidin-4-yl)-2,7-naphthyridin-1(2H)-one] | – | 0.1 to 1 | 1 to 10 | – | – | > 10 | 1 to 10 | 0.1 to 1 | > 10 |
| Cc1c(O)c(-c2ccc3c(=O)n(C4CCNCC4)cc(C)c3n2)cc2cn(C)nc12 [Compound 1284] | < 0.1 | < 0.1 | < 0.1 | < 0.1 | 0.1 to 1 | 0.1 to 1 | – | – | – |
| Cc1c(O)c(-c2ncc3c(=O)n(C4C[C@@H](C)N[C@H](C)C4)ccc3n2)cc2cn(C)nc12 (stereo partly drawn) [Compound 1454, 6-[(2R,6R)-2,6-dimethyl-4-piperidyl]-2-(6-hydroxy-2,7-dimethyl-indazol-5-yl)pyrido[4,3-d]pyrimidin-5-one] | 0.1 to 1 | 0.1 to 1 | 0.1 to 1 | < 0.1 | 1 to 10 | 1 to 10 | – | – | – |
| Cn1cc2cc(-c3ncc4c(=O)n(C5CCNCC5)ccc4n3)c(O)cc2n1 [Compound 1211] | – | < 0.1 | 0.1 to 1 | – | – | 0.1 to 1 | 0.1 to 1 | < 0.1 | 1 to 10 |
| Cc1cn2cc(-c3ncc4c(=O)n(C5CCNC5)ccc4n3)c(O)c(C)c2n1 (stereo not shown) [Compound 1227] | – | 1 to 10 | 1 to 10 | – | – | > 10 | 1 to 10 | 0.1 to 1 | > 10 |
| Cn1cc2cc(-c3ccc4c(=O)n(C5CCNC6(CC6)C5)ccc4n3)c(O)cc2n1 (stereo not shown) [Compound 1242] | < 0.1 | < 0.1 | < 0.1 | < 0.1 | 0.1 to 1 | < 0.1 | – | – | – |
| Cc1cc(-c2cc3ccn(C4CCN(C)CC4)c(=O)c3cn2)cc2cn(C)nc12 [Compound 1206, 6-(2,7-dimethyl-2H-indazol-5-yl)-2-(1-methylpiperidin-4-yl)-2,7-naphthyridin-1(2H)-one] | – | 1 to 10 | 0.1 to 1 | – | – | > 10 | 0.1 to 1 | < 0.1 | > 10 |
| COc1c(-c2cc3ccn(C4CCNCC4)c(=O)c3cn2)cc2cn(C)nc2c1F [Compound 1219] | – | 1 to 10 | 1 to 10 | – | – | 1 to 10 | 1 to 10 | 0.1 to 1 | > 10 |
| Cc1c(O)c(-c2ncc3c(=O)n(C4CCNC(C)(C)C4)ccc3n2)cc2cn(C)nc12 (stereo not shown) [Compound 1442] | 0.1 to 1 | < 0.1 | 0.1 to 1 | < 0.1 | 1 to 10 | 0.1 to 1 | – | – | – |
| Cc1c(O)c(-c2ncc3c(=O)n(C4CCNCC4)cc(C)c3n2)cc2cn(C)nc12 [Compound 1191] | – | < 0.1 | < 0.1 | – | – | < 0.1 | < 0.1 | < 0.1 | 0.1 to 1 |
| Cc1cn2cc(-c3ncc4c(=O)n(C5CCNCC5)ccc4n3)c(O)c(C)c2n1 [Compound 1225] | – | 0.1 to 1 | 0.1 to 1 | – | – | 0.1 to 1 | 0.1 to 1 | < 0.1 | 0.1 to 1 |
| Cc1c(O)c(-c2ncc3c(=O)n([C@H]4C[C@@H](N)C4)ccc3n2)cc2cn(C)nc12 [Compound 1431, 6-((1s,3s)-3-aminocyclobutyl)-2-(6-hydroxy-2,7-dimethyl-2H-indazol-5-yl)pyrido[4,3-d]pyrimidin-5(6H)-one] | 1 to 10 | 1 to 10 | 1 to 10 | 0.1 to 1 | 1 to 10 | 1 to 10 | – | – | – |
| Cc1c(O)c(-c2ncc3c(=O)n(C4C[C@H]5C[C@@H]4CN5)ccc3n2)cc2cn(C)nc12 (stereo in doubt) [Compound 1444, 6-[(1R,4R,5R)-2-azabicyclo[2.2.1]heptan-5-yl]-2-(6-hydroxy-2,7-dimethyl-indazol-5-yl)pyrido[4,3-d]pyrimidin-5-one] | 0.1 to 1 | 0.1 to 1 | 0.1 to 1 | < 0.1 | 0.1 to 1 | 0.1 to 1 | – | – | – |
| Cc1cn2cc(-c3cc(O)c4c(=O)n(C5CCNCC5)ccc4n3)cc(F)c2n1 [Compound 1448] | 0.1 to 1 | 0.1 to 1 | 0.1 to 1 | < 0.1 | 1 to 10 | 0.1 to 1 | – | – | – |
| Cc1cn2nc(-c3ccc4c(=O)n(C5CCNCC5)ncc4c3)cc(C)c2n1 [Compound 186] | – | 0.1 to 1 | < 0.1 | – | – | 0.1 to 1 | 0.1 to 1 | < 0.1 | 0.1 to 1 |
| Cc1cn2nc(-c3ccc4c(=O)n(C5CCN(CCF)CC5)ncc4n3)cc(C)c2n1 [Compound 1309] | 0.1 to 1 | 0.1 to 1 | 0.1 to 1 | < 0.1 | 0.1 to 1 | – | – | – | – |
| Cn1cc2cc(-c3ccc4c(=O)n(C5CCNC6(CC6)C5)ncc4n3)c(O)cc2n1 (stereo not shown) [Compound 1306] | 0.1 to 1 | 0.1 to 1 | 0.1 to 1 | < 0.1 | 0.1 to 1 | – | – | – | – |
| CN1CCC(n2ncc3nc(-c4cc5cn(C)nc5cc4O)ccc3c2=O)CC1 [Compound 1307] | 1 to 10 | 1 to 10 | 1 to 10 | 0.1 to 1 | 1 to 10 | – | – | – | – |
| Cc1cn2nc(-c3ccc4c(=O)n(C5CCNCC5)ncc4n3)cc(C)c2n1 [Compound 1247] | < 0.1 | < 0.1 | < 0.1 | < 0.1 | 0.1 to 1 | – | – | – | – |
| CCN1CCC(n2ncc3nc(-c4cc5cn(C)nc5cc4O)ccc3c2=O)CC1 [Compound 1310] | 1 to 10 | 1 to 10 | 1 to 10 | 0.1 to 1 | 1 to 10 | – | – | – | – |
| Cc1cn2nc(-c3ccc4c(=O)n(C5CCN(C)CC5)ncc4n3)cc(C)c2n1 [Compound 1311] | 0.1 to 1 | 0.1 to 1 | 0.1 to 1 | < 0.1 | 0.1 to 1 | – | – | – | – |
